Reference: patent publication US20250320224A1 (DOMAIN THERAPEUTICS, priority 2022, published 2025)

Target: T1, human PAR-2 (hPAR-2) receptor (Homo sapiens, UniProt P55085)
T1 construct: expressed in HEK-293 cells in an endogenous manner; endogenous in cells; host or cells: HEK-293
T1 sequence (P55085 26-397): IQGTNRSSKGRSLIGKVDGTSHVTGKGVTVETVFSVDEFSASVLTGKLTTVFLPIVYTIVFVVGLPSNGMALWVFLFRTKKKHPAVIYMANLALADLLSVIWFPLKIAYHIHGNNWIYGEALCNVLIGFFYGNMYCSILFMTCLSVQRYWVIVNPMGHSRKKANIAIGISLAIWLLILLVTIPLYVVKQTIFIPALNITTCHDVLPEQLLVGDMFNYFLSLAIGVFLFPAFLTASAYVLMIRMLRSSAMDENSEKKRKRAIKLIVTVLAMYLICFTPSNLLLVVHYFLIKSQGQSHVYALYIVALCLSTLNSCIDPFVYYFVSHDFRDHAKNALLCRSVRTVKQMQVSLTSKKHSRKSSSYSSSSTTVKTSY
Test: In vitro human PAR-2 functional antagonist activity using calcium assays
Type: cell-based
Settings: hPAR-2 endogenously expressed in HEK-293 cells; stimulated by 2-Furoyl-LIGRLO-NH2 peptide; Fluo4AM intracellular calcium, FLIPR Tetra
How it was run: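 Antagonism was measured as reduced calcium response to 2-Furoyl-LIGRLO-NH2 (dosed at its 80%-of-maximum concentration), recorded for 5 min. This followed a 10 min compound pre-incubation on Fluo4AM-loaded HEK-293 cells expressing native hPAR-2. Signals were normalised to buffer and agonist-alone controls.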

Compound | IC50 [nM]
CC(C(=O)O)c1ccc(N2CCN(C(=O)c3ccc4c(n3)C(C)(C)CN4c3ccc(Cl)c(F)c3)C(C)(C)C2)nc1 (stereo not drawn) [Example 160, 2-(6-(4-(1-(4-chloro-3-fluorophenyl)-3,3-dimethyl-2,3-dihydro-1H-pyrrolo[3,2-b]pyridine-5-carbonyl)-3,3-dimethylpiperazin-1-yl)pyridin-3-yl)propanoic acid] | < 500
Cc1cc(N2CCN(C(=O)c3ccc4c(n3)C(C)(C)CN4C3CCC(C(N)=O)CC3)C(C)(C)C2)nc(C)c1C(=O)O (stereo not drawn) [Example 162, 6-(4-(1-(4-carbamoylcyclohexyl)-3,3-dimethyl-2,3-dihydro-1H-pyrrolo[3,2-b]pyridine-5-carbonyl)-3,3-dimethylpiperazin-1-yl)-2,4-dimethylnicotinic acid] | 500 to 10000
CC1(C)CN(C2CCC(F)(F)CC2)c2ccc(C(=O)N3CCN(c4ccc(CC(=O)O)cn4)CC3(C)C)nc21 [Example 164, 2-(6-(4-(1-(4,4-difluorocyclohexyl)-3,3-dimethyl-2,3-dihydro-1H-pyrrolo[3,2-b]pyridine-5-carbonyl)-3,3-dimethylpiperazin-1-yl)pyridin-3-yl)acetic acid] | < 500
Cc1cc(C)nc(N2CCN(C(=O)c3ccc4c(n3)C(C)(C)CN4C3CCC(C#N)CC3)C(C)(C)C2)c1 (stereo not drawn) [Example 165, 4-(5-(4-(4,6-dimethylpyridin-2-yl)-2,2-dimethylpiperazine-1-carbonyl)-3,3-dimethyl-2,3-dihydro-1H-pyrrolo[3,2-b]pyridin-1-yl)cyclohexane-1-carbonitrile] | 500 to 10000
CC1(C)CN(C2CCCC2)c2ccc(C(=O)N3CCN(c4ccc(CC(=O)O)cn4)CC3(C)C)nc21 [Example 167, 2-(6-(4-(1-cyclopentyl-3,3-dimethyl-2,3-dihydro-1H-pyrrolo[3,2-b]pyridine-5-carbonyl)-3,3-dimethylpiperazin-1-yl)pyridin-3-yl)acetic acid] | 500 to 10000
CC1(C)CN(C2CCC(C#N)CC2)c2ccc(C(=O)N3CCN(c4ccc(CC(=O)O)cn4)CC3(C)C)nc21 (stereo not drawn) [Example 169, 2-(6-(4-(1-(4-cyanocyclohexyl)-3,3-dimethyl-2,3-dihydro-1H-pyrrolo[3,2-b]pyridine-5-carbonyl)-3,3-dimethylpiperazin-1-yl)pyridin-3-yl)acetic acid] | 500 to 10000
CC1(C)CN(c2ccc(F)c(F)c2)c2ncc(C(=O)N3CCN(c4ccc(CC(=O)O)cn4)CC3(C)C)nc21 [Example 171, 2-(6-(4-(5-(3,4-difluorophenyl)-7,7-dimethyl-6,7-dihydro-5H-pyrrolo[2,3-b]pyrazine-2-carbonyl)-3,3-dimethylpiperazin-1-yl)pyridin-3-yl)acetic acid] | < 500
CC1(C)CN(c2ccc(Cl)c(F)c2)c2ncc(C(=O)N3CCN(c4ccc(CC(=O)O)cn4)CC3(C)C)nc21 [Example 173, 2-(6-(4-(5-(4-chloro-3-fluorophenyl)-7,7-dimethyl-6,7-dihydro-5H-pyrrolo[2,3-b]pyrazine-2-carbonyl)-3,3-dimethylpiperazin-1-yl)pyridin-3-yl)acetic acid] | < 500
CC1(C)CN(c2ccc(Cl)c(F)c2)c2ccc(C(=O)N3CCN(c4ccc(C(C)(C)C(=O)O)cn4)CC3(C)C)nc21 [Example 175, 2-(6-(4-(1-(4-chloro-3-fluorophenyl)-3,3-dimethyl-2,3-dihydro-1H-pyrrolo[3,2-b]pyridine-5-carbonyl)-3,3-dimethylpiperazin-1-yl)pyridin-3-yl)-2-methylpropanoic acid] | < 500
CC1(C)CCN(c2ccc(Cl)c(F)c2)c2ccc(C(=O)N3CCN(c4ccc(CC(=O)O)cn4)CC3(C)C)nc21 [Example 177, 2-(6-(4-(5-(4-chloro-3-fluorophenyl)-8,8-dimethyl-5,6,7,8-tetrahydro-1,5-naphthyridine-2-carbonyl)-3,3-dimethylpiperazin-1-yl)pyridin-3-yl)acetic acid] | < 500
CC1(C)CN(c2ccc(CC(=O)O)cn2)CCN1C(=O)c1cc2n(n1)C(C)(C)CCN2c1ccc(Cl)c(F)c1 [Example 179, 2-(6-(4-(4-(4-chloro-3-fluorophenyl)-7,7-dimethyl-4,5,6,7-tetrahydropyrazolo[1,5-a]pyrimidine-2-carbonyl)-3,3-dimethylpiperazin-1-yl)pyridin-3-yl)acetic acid] | > 10000
Cc1cc(N2CCN(C(=O)c3cnc4c(n3)C(C)(C)CN4c3ccc(F)c(F)c3)C(C)(C)C2)nc(C)c1C(=O)O [Example 181, 6-(4-(5-(3,4-difluorophenyl)-7,7-dimethyl-6,7-dihydro-5H-pyrrolo[2,3-b]pyrazine-2-carbonyl)-3,3-dimethylpiperazin-1-yl)-2,4-dimethylnicotinic acid] | < 500
Cc1cc(N2CCN(C(=O)c3cnc4c(n3)C(C)(C)CN4C3CCCC3)C(C)(C)C2)nc(C)c1C(=O)O [Example 183, 6-(4-(5-cyclopentyl-7,7-dimethyl-6,7-dihydro-5H-pyrrolo[2,3-b]pyrazine-2-carbonyl)-3,3-dimethylpiperazin-1-yl)-2,4-dimethylnicotinic acid] | > 10000
Cc1ccc(N2CC(C)(C)c3nc(C(=O)N4CCN(c5cc(C)c(C(=O)O)c(C)n5)CC4(C)C)cnc32)cc1F [Example 185, 6-(4-(5-(3-fluoro-4-methylphenyl)-7,7-dimethyl-6,7-dihydro-5H-pyrrolo[2,3-b]pyrazine-2-carbonyl)-3,3-dimethylpiperazin-1-yl)-2,4-dimethylnicotinic acid] | < 500
Cc1cc(N2CCN(C(=O)c3cnc4c(n3)C(C)(C)CN4c3cc(F)c(Cl)c(F)c3)C(C)(C)C2)nc(C)c1C(=O)O [Example 187, 6-(4-(5-(4-chloro-3,5-difluorophenyl)-7,7-dimethyl-6,7-dihydro-5H-pyrrolo[2,3-b]pyrazine-2-carbonyl)-3,3-dimethylpiperazin-1-yl)-2,4-dimethylnicotinic acid] | < 500
Cc1ccc(N2CC(C)(C)c3nc(C(=O)N4CCN(c5cc(C)c(C(=O)O)c(C)n5)CC4(C)C)cnc32)cc1Cl [Example 189, 6-(4-(5-(3-chloro-4-methylphenyl)-7,7-dimethyl-6,7-dihydro-5H-pyrrolo[2,3-b]pyrazine-2-carbonyl)-3,3-dimethylpiperazin-1-yl)-2,4-dimethylnicotinic acid] | < 500
Cc1cc(N2CCN(C(=O)c3cnc4c(n3)C(C)(C)CN4c3ccc(F)c(Cl)c3)C(C)(C)C2)nc(C)c1C(=O)O [Example 191, 6-(4-(5-(3-chloro-4-fluorophenyl)-7,7-dimethyl-6,7-dihydro-5H-pyrrolo[2,3-b]pyrazine-2-carbonyl)-3,3-dimethylpiperazin-1-yl)-2,4-dimethylnicotinic acid] | < 500
Cc1cc(N2CCN(C(=O)c3cnc4c(n3)C(C)(C)CN4c3ccc(C(F)(F)F)c(Cl)c3)C(C)(C)C2)nc(C)c1C(=O)O [Example 193, 6-(4-(5-(3-chloro-4-(trifluoromethyl)phenyl)-7,7-dimethyl-6,7-dihydro-5H-pyrrolo[2,3-b]pyrazine-2-carbonyl)-3,3-dimethylpiperazin-1-yl)-2,4-dimethylnicotinic acid] | < 500
CC1(C)CN(c2ccc(CC(=O)O)cn2)CCN1C(=O)c1cc2n(n1)C(C)(C)CN(c1ccc(Cl)c(F)c1)C2 [Example 195, 2-(6-(4-(5-(4-chloro-3-fluorophenyl)-7,7-dimethyl-4,5,6,7-tetrahydropyrazolo[1,5-a]pyrazine-2-carbonyl)-3,3-dimethylpiperazin-1-yl)pyridin-3-yl)acetic acid] | 500 to 10000
CC(C)CN1CC(C)(Cc2ccc(Cl)c(F)c2)c2ccc(C(=O)N3CCN(c4ccc(CC(=O)O)cn4)CC3(C)C)nc21 (stereo not drawn) [Example 197, 2-(6-(4-(3-(4-chloro-3-fluorobenzyl)-1-isobutyl-3-methyl-2,3-dihydro-1H-pyrrolo[2,3-b]pyridine-6-carbonyl)-3,3-dimethylpiperazin-1-yl)pyridin-3-yl)acetic acid] | > 10000
Cc1ccc(N2CC(C)(C)c3nc(C(=O)N4CCN(c5ccc(CC(=O)O)cn5)CC4(C)C)cnc32)cc1F [Example 203, 2-(6-(4-(5-(3-fluoro-4-methylphenyl)-7,7-dimethyl-6,7-dihydro-5H-pyrrolo[2,3-b]pyrazine-2-carbonyl)-3,3-dimethylpiperazin-1-yl)pyridin-3-yl)acetic acid] | < 500
CC1(C)CN(c2ccc(F)c(Cl)c2)c2ncc(C(=O)N3CCN(c4ccc(CC(=O)O)cn4)CC3(C)C)nc21 [Example 205, 2-(6-(4-(5-(3-chloro-4-fluorophenyl)-7,7-dimethyl-6,7-dihydro-5H-pyrrolo[2,3-b]pyrazine-2-carbonyl)-3,3-dimethylpiperazin-1-yl)pyridin-3-yl)acetic acid] | < 500
Cc1cc(N2CCN(C(=O)c3cnc4c(n3)C3(CCCC3)CN4c3ccc(Cl)c(F)c3)C(C)(C)C2)nc(C)c1C(=O)O [Example 207, 6-(4-(5′-(4-chloro-3-fluorophenyl)-5′,6′-dihydrospiro[cyclopentane-1,7′-pyrrolo[2,3-b]pyrazine]-2′-carbonyl)-3,3-dimethylpiperazin-1-yl)-2,4-dimethylnicotinic acid] | < 500
Cc1cc(N2CCN(C(=O)c3ccc4c(n3)C(C)(C)CN4c3ccc4c(c3)COC4)C(C)(C)C2)nc(C)c1C(=O)O [Example 209, 6-(4-(1-(1,3-dihydroisobenzofuran-5-yl)-3,3-dimethyl-2,3-dihydro-1H-pyrrolo[3,2-b]pyridine-5-carbonyl)-3,3-dimethylpiperazin-1-yl)-2,4-dimethylnicotinic acid] | < 500
